Molecules are shown by their SMILES. Like-named read-outs stand apart in the source and are kept apart here.

This is an account of results in US8501728B2, “Substituted heteroarylamide oxazepinopyrimidone derivatives” (priority 2008, dated 2013).

This assay has as its target T1, commercial GSK3beta (Millipore) (Homo sapiens, UniProt P49841).
T1 construct: purchased Millipore
The assay is described as follows: biochemical. On the procedure: In a fourth protocol: 7.5 μM of prephosphorylated GS1 peptide and 10 μM ATP (containing 300,000 cpm of ^33P-ATP) were incubated in 50 mM Hepes, pH 7.2, 1 mM DTT, 1 mM MgCl2, 1 mM EGTA, 0.01% Tween 20 buffer for 90 minutes at room temperature in the presence of commercial GSK3beta (Millipore) (total reaction volume: 100 microliters).
Inhibitors were solubilised in DMSO (final solvent concentration in the reaction medium, 1%).
The reaction was stopped with 100 microliters of a solution made of 25 g polyphosphoric acid (85% P2O5), 126 ml 85% H3PO4, H2O to 500 ml and then diluted to 1:100 before use. An aliquot of the reaction mixture was then transferred to Whatman P81 cation exchange filters and rinsed with the solution described above. Incorporated ^33P radioactivity was determined by liquid scintillation spectrometry.
(Woodgett, J. R. (1989) Analytical Biochemistry 180, 237-241.

The mark [1] stands for this setting: protocol 4: 7.5 μM GS1 peptide, 10 μM ATP, 90 minutes at room temperature, read-out: GSK3β inhibitory activity IC50.

T1 sequence (P49841 whole entry): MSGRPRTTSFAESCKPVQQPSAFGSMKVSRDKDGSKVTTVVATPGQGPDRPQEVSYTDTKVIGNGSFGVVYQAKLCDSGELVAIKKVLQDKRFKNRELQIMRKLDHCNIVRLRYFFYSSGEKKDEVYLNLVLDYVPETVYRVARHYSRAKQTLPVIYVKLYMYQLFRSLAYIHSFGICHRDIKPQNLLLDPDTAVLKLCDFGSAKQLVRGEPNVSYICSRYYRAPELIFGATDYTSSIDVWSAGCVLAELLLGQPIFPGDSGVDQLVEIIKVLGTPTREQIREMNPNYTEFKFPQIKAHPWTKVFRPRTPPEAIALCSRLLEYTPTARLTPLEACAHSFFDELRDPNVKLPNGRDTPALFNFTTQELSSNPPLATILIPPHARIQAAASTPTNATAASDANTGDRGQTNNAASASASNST

Take `CSc1ncc(Br)c(C(=O)NC2COCCn3c2nc(-c2ccncn2)cc3=O)n1` (racemic) [compound 18, (+/−)-5-Bromo-2-methylsulfanyl-pyrimidine-4-carboxylic acid (4-oxo-2-pyrimidin-4-yl-5,6,8,9-tetrahydro-4H-7-oxa-1,4-a-diaza-benzocyclohepten-9-yl)-amide]: under setting [1], the IC50 was determined as 52 nM.
For the molecule `O=C(NC1COCCn2c1nc(-c1ccncn1)cc2=O)c1cc(F)cc2c1OCOC2` (racemic) [compound 12, (+/−)-6-Fluoro-4H-benzo[1,3]dioxine-8-carboxylic acid (4-oxo-2-pyrimidin-4-yl-5,6,8,9-tetrahydro-4H-7-oxa-1,4-a-diaza-benzocyclohepten-9-yl)-amide], the IC50 under setting [1] turned out to be 5 nM.
Take `O=C(NC1COCCn2c1nc(-c1ccncn1)cc2=O)c1ccccn1` (racemic) [compound 17, (+/−)-Pyridine-2-carboxylic acid (4-oxo-2-pyrimidin-4-yl-5,6,8,9-tetrahydro-4H-7-oxa-1,4-a-diaza-benzocyclohepten-9-yl)-amide]: inhibition was half-maximal at 15 nM (IC50).
For the molecule `CSc1ncc(Cl)c(C(=O)NC2COCCn3c2nc(-c2ccncn2)cc3=O)n1` (racemic) [compound 15, (+/−)-5-Chloro-2-methylsulfanyl-pyrimidine-4-carboxylic acid (4-oxo-2-pyrimidin-4-yl-5,6,8,9-tetrahydro-4H-7-oxa-1,4-a-diaza-benzocyclohepten-9-yl)-amide], the IC50 under setting [1] is 31 nM.
